molecular target: Cannabinoid receptor 1 (Homo sapiens, UniProt P21554); assay: Displacement of [3H][…] from human recombinant cannabinoid CB1 receptor expressed in CHO cells; format: cell-based
Sequence (P21554 whole entry): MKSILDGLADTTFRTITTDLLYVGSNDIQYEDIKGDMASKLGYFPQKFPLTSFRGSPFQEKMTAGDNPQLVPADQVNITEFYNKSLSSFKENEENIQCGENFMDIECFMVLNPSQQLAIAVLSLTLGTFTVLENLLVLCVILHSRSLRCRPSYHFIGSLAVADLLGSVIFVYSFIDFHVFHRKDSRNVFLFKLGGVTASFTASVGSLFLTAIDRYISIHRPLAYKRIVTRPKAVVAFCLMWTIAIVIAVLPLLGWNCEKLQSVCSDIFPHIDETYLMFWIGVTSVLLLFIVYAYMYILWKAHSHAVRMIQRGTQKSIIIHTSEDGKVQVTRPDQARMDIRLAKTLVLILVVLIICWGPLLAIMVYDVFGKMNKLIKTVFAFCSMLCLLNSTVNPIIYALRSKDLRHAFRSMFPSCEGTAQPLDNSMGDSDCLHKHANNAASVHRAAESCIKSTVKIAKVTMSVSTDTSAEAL

IC50 [nM]	SMILES
1300	CC(C)(Oc1ccc(C(F)(F)F)cn1)C(=O)N1CC(Cc2ccc(Cl)cc2)(c2ccccc2)C1
2000	CC(C)(Oc1ccc(C(F)(F)F)cn1)C(=O)N1CCCC(Cc2ccc(Cl)cc2)(c2ccccc2)C1 (racemic)
25	CC(NC(=O)C(C)(C)Oc1ccc(C(F)(F)F)cn1)C(C)(Cc1ccc(Cl)cc1)c1cccc(Br)c1 (racemic)
260	CC(NC(=O)C(C)(C)Oc1ccc(C(F)(F)F)cn1)C(C)(Cc1ccc(Cl)cc1)c1cccc(Br)c1 (stereo in doubt; 5b)
810	CC(C)(Oc1ccc(C(F)(F)F)cn1)C(=O)N1CCC(Cc2ccc(Cl)cc2)(c2ccccc2)C1 (racemic)
22	CC(C)(Oc1ccc(C(F)(F)F)cn1)C(=O)NC(C)(C)[C@@H](Cc1ccc(Cl)cc1)c1cccc(Br)c1 (racemic)
340	CC(C)(Oc1ccc(C(F)(F)F)cn1)C(=O)NCC(C)(Cc1ccc(Cl)cc1)c1cccc(Br)c1 (racemic)
0.59	C[C@H](NC(=O)C(C)(C)Oc1ccc(C(F)(F)F)cn1)[C@@H](Cc1ccc(Cl)cc1)c1cccc(Br)c1 (racemic)

From ChEMBL document CHEMBL1208788 (Bioorg Med Chem Lett, 2010)
